The source of these data is ChEMBL document CHEMBL1201862, “PubChem BioAssay data set” (2004).

Test [1] deals with T1, Heat shock factor protein 1 (Mus musculus, UniProt P38532).
T1 sequence (P38532 whole entry): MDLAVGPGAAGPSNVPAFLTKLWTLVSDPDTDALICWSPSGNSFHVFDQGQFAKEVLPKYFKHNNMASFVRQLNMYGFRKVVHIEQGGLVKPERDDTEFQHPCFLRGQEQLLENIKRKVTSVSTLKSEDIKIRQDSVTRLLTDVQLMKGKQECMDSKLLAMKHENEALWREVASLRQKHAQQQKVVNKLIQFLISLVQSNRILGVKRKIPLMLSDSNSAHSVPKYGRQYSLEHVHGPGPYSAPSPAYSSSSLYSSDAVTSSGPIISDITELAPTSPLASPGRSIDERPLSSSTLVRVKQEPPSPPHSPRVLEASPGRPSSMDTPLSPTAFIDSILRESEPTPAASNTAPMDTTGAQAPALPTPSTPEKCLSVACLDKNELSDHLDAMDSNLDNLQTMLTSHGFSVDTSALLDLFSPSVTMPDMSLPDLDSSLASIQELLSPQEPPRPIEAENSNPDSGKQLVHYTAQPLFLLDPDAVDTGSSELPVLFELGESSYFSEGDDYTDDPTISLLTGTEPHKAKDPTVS
Description: inhibition of MG132-induced HSE-luciferase signal, confirmation, cell-based, NIH3T3, luminescence, dose retest (AID 2382).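 Further: NIH3T3 fibroblasts with HSF1-driven luciferase reporter stressed by proteasome inhibitor MG132; luminescence from HSF1-driven luciferase expression after 8 hours of MG132 stress.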 The test is classed as functional.

The target in test [2] is DNA dC->dU-editing enzyme APOBEC-3G (Homo sapiens, UniProt Q9HC16). In words: Dose Response confirmation of small molecule APOBEC3G DNA Deaminase Inhibitors via a fluorescence-based single-stranded DNA deaminase assay. [Related pubchem assays (depositor defined):AID493012, AID493028]. The test is classed as functional.
Test [3] in a line: cells. The test is classed as functional, cell-based.
Test [4] is described as follows: cells. Type of test: functional, cell-based. This is another data set of the same source.
Test [5] in a line: inhibitors of HIV Env-driven cell fusion, dose response, cherry-pick (AID 652057). Type of test: functional, cell-based.
Test [6] is described as follows: ZM109 Env clade C HIV-1 fusion inhibitors, dose response, HeLa effector, CEM target cells, luciferase, cherry-pick (AID 652058). The test is classed as functional, cell-based.
Test [7] can be described thus: off-target signal loss in HeLa-CEM21 co-culture – HeLa F-luc CTL cells, cherry-picked, counter-screen for HIV-1 Env fusion inhibitor project, dose response (AID 652040).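 Further: potency for signal decrease marking cytotoxic or nonspecific inhibition.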 The test is classed as functional, cell-based.
A short description of test [8]: inhibitors of clade B AD8 Env fusion, dose response, cell-based, cherry-pick (AID 652062).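 Further: luciferase signal from cell-cell fusion driven by HIV-1 clade B AD8 Env; potency is for inhibitors of fusion seen as a drop in luminescence.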 Type of test: functional.
Test [9] concerns H9c2. In words: cells. Type of test: functional, cell-based. Conditions: Rattus norvegicus, H9c2, Myocardium.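 Further: confirmatory concentration-response retest of ultra-high-throughput screening hits for modulation of myocardial damage; cell death induced by hydrogen peroxide oxidative stress; compound pretreatment for 60 min then peroxide exposure for 2 h; potency is for protecting the cells against peroxide damage rather than for killing them.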
Test [10] has as its target T2, Ubiquitin-conjugating enzyme E2 N (Homo sapiens, UniProt P61088).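 Further: Dose-response confirmation in a TR-FRET assay detecting UBC13-driven polyubiquitin chain formation, inhibition measured.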
T2 sequence (P61088 whole entry): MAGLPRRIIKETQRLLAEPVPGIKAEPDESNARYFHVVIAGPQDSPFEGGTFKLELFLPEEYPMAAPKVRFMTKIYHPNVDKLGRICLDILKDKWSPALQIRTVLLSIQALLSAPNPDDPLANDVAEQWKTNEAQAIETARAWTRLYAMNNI
Type of test: functional.

Test [11] relates to HeLa. Description: HeLa cell cytotoxicity, dose response, cytotoxicity control for MITF activator project, CellTiter-Glo luminescence, cherry-pick samples (AID 540259). As to conditions: Homo sapiens. Type of test: functional, cell-based. Background: Cellular ATP, detected with luciferase, serves as a proxy for viable cell number.
The nature of test [12]: inhibitors of firefly luciferase expression or activity, dose response, H4 neuroglioma cells, luminescence (AID 1990). The test is classed as functional, cell-based.
The nature of test [13]: Luminescence Cell-Based Dose Response HTS to Identify Inhibitors of 5'UTR Stem-Loop Driven Prion Protein mRNA Translation in H4 Neuroglioblastoma Cells. [Related pubchem assays: 1827 (Project Summary), 1813 (Primary HTS)]. The test is classed as functional.
The nature of test [14]: inhibitors of SNCA 5'UTR-driven reporter translation, confirmation, H4 neuroglioma cells, luminescence (AID 1988). Type of test: functional, cell-based.
The nature of test [15]: cytotoxicity in HPDE-C7 cells, cell-based, fluorescence, HTS (AID 430). The test is classed as functional. As to conditions: Homo sapiens.
Test [16] can be described thus: cytotoxicity in KRAS-transformed pancreatic duct cells, primary screen, cell-based, fluorescence, HTS (AID 431).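 Further: cell line used: HPDE-C7K.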 Type of test: functional. Conditions: Homo sapiens.
The subject of test [17] is INS1. In words: beta cell apoptosis inhibitors, cytokine rescue, dose response, luminescence, retest (AID 449756).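 Further: cell death triggered by IL-1 beta plus TNF-alpha plus IFN-gamma mixture; protective hits raise ATP signal compared with cytokine alone wells.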 The test is classed as functional, cell-based. Conditions: Rattus norvegicus.
A short description of test [18]: Shn3 3'UTR reporter inhibitors, dose response, cell-based, Clone20 osteoblasts, firefly luciferase, cherry-picked (AID 624132).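 Further: firefly luciferase luminescence from reporter carrying the Shn3 3'UTR in osteoblasts.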 The test is classed as functional.
Test [19] is described as follows: HepG2 cell cytotoxicity, dose response, cytotoxicity control for Shn3 inhibitor project, CellTiter-Glo, cherry-picked (AID 624134). The test is classed as functional, cell-based.
A short description of test [20]: control 3'UTR Renilla luciferase suppression, dose response, counter-screen for Shn3 inhibitor project, cell-based, Clone20-Shn3RL, cherry-picked (AID 624133). The test is classed as functional. In general terms: A counterscreen serves to expose hits that act by an unwanted route or on another target.
The nature of test [21]: inhibitors of intracellular T. cruzi replication, confirmation, NIH3T3 host cells, beta-gal luminescence (AID 2044).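 Further: intracellular parasites grown in NIH/3T3 mouse fibroblasts as host cells; luminescent beta-galactosidase reporter signal from transgenic T. cruzi replicating inside host cells; inhibitors lower the luminescence signal.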 The test is classed as functional, cell-based.
Test [22] is described as follows: cytotoxicity toward NIH3T3 fibroblasts, dose response, counter-screen, cell-based, ATP luminescence, mouse fibroblasts (AID 2010).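 Further: cells exposed to compound for about 90 hours before reading.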 Type of test: functional.
In test [23] the test system is P388/ADR. Description: cells. The test is classed as functional. Conditions: Mus musculus, P388/ADR.
Test [24] relates to SN12K1. Description: cells. Conditions: Homo sapiens, SN12K1. The test is classed as functional.
Test [25] can be described thus: Luminescence Cell-Based Dose Retest to Confirm Inhibitors of Cancer Stem Cells. [Related pubchem assays (depositor defined):AID2717, AID2721]. The test is classed as functional. As to conditions: Homo sapiens.
Test [26] in a line: P. falciparum Dd2 growth inhibitors, dose response, SYBR Green, cherry-picked samples (AID 1159567). Type of test: functional, cell-based.

The source made the active and inactive calls.

DNA dC->dU-editing enzyme APOBEC-3G, sequence (Q9HC16 whole entry): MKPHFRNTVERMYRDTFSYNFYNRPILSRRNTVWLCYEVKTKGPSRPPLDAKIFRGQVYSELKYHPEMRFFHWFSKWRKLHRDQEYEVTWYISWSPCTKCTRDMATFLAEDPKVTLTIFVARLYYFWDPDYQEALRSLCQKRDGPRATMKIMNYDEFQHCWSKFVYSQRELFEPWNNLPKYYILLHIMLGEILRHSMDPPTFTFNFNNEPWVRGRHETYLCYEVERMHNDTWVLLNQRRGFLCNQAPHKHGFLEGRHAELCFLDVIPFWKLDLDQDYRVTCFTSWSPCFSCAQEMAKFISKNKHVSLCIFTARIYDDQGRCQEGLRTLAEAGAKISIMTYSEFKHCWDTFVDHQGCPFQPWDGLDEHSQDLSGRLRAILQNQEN

As a reminder, the EC50 is the midpoint of the concentration-response curve. For orientation: IC50 means the midpoint of a concentration-inhibition curve. On to `COc1ccc(/C=N/n2c(S)nnc2-c2cc(C)[nH]n2)cc1OC`, for which, in [1], the EC50 is > 195 µM (not active). Moreover, the IC50 in test [2] was 8.3 µM (active).
`CCCCC(=O)Nc1ccc(NC(=O)CC)cc1OC`: the half-maximal effective concentration (EC50) in test [3] and in test [4] was > 350 µM (not active) throughout.
As usually defined, the AC50 is the concentration giving half of the maximal activity seen. Regarding `COc1ccc(N2C(=O)NC(=O)/C(=C(/C)NCCCn3ccnc3)C2=O)cc1`, the AC50 in [5] was 2.49 µM (active); in [6] it was 4.33 µM (active); in test [7], 19.5 µM (active); in [8], 6.76 µM (active).
`O=C(COC(=O)c1ccc([N+](=O)[O-])o1)Nc1cccc(S(=O)(=O)N2CCCCC2)c1`: the IC50 in [9] was > 79 µM (inactive).
Turning to `COC(=O)c1ccccc1NC(=O)c1nc2nc(C)cc(C)n2n1`, in [9], the IC50 is > 79 µM (inactive).
For `O=S1(=O)CC(O)C(N=Nc2c(O)n(Cc3ccccc3)c3ccccc23)C1` (stereo unspecified), the IC50 in test [10] was > 20 µM (inactive).
In the case of `Cc1ccc(-c2cc(-c3ccc(C)cc3O)[nH]n2)cc1`, the concentration at half-maximal activity (AC50) in test [11] was 44.6 µM (active).
With `CN(C)Cc1ccc(-c2nc3cccc4c3n2CCNC4=O)cc1`, the IC50 in test [9] was > 79 µM (inactive).
As for `COc1cc(-c2nnc(COC(=O)c3cc(C)nc4ccc(C)cc34)o2)cc(OC)c1OC`, in test [9], the IC50 was 12.3 µM (active).
Take `O=C(CCc1nc(O)c2ccccc2n1)Nc1ccc(N2CCCCC2)cc1`: the IC50 in test [9] is > 79 µM (inactive).
On to `C#CCOCCOCCOCCNc1nc(N2CCN(C(=O)[C@H](CO)n3cc([C@@H](N)C(C)C)nn3)CC2)nc(N2CCN(C(=O)[C@H](CCC(=O)O)n3cc([C@@H](N)CCCCN)nn3)CC2)n1`, for which, in [10], the IC50 is > 20 µM (inactive).
As for `CC(C)Cn1c(/C=N/Nc2nc3ccccc3[nH]2)nc2ccccc21`, the figures for the EC50 in test [3] and in test [4] were 52.5 µM (active) and > 350 µM (not active), respectively.
For the compound `CC[C@H]1CN2CCc3cc(OC)c(OC)cc3[C@@H]2C[C@@H]1C[C@H]1NCCc2cc(OC)c(OC)cc21`, the EC50 in test [12] was < 0.1 µM (active); in test [13], < 0.1 µM (active); in [1], < 0.16 µM (active); in test [14] it was < 0.1 µM (active); in [15] it was 0.15 µM (active); in [16] it was 0.09 µM (active). The AC50 in [17] was 2.35 µM (active); in test [18], < 0.26 µM (active); in [19] it was 40.5 µM (active); in [20], 0.33 µM (active).
As to `CN(C(=O)Cn1nc(C(=O)O)c2ccccc2c1=O)C1(C#N)CCCCC1`, the IC50 in [9] is > 79 µM (inactive).
As for `CC(=O)c1sc(NC(=O)c2ccc3c(c2)OCO3)nc1C`, the concentration at half-maximal activity (AC50) in test [11] was 51.5 µM (active).
`CCCCN=C(S)Nc1ccc2c[nH]nc2c1`: the EC50 in test [3] and in [4] was > 350 µM (not active) in each case.
Turning to `COc1ccc(CC(=S)N2CCOCC2)cc1`, the half-inhibitory concentration (IC50) in test [2] was 46.1 µM (active).
On to `O=C(N/N=C/c1cccnc1)c1ccc(NC(=O)c2ccc(Cl)cc2)cc1`, for which the EC50 in test [3] and in test [4] was > 350 µM (not active) throughout.
On to `C/C(=N\NC(=O)c1cc(-c2cccnc2)nc2ccccc12)c1ccccc1O`, for which the EC50 is 16.8 µM (active) in [3], 0.834 µM (active) in test [21], > 350 µM (not active) in test [4] and 2.18 µM (active) in test [22]. Further, the AC50 in test [17] was 0.971 µM (active).
`CCOC(=O)c1c(NC(=O)c2ccc(-n3cnnn3)cc2)sc2c1CCCC2`: the EC50 in test [15] and in test [16] was > 20 µM (not active) throughout.
`Cc1cc(NC(=O)CSc2nc3c(c(=O)n2-c2ccc(Cl)cc2)SCC3)no1`: the EC50 in [3] and in test [4] was > 350 µM (not active) each time.
`CC(C)c1ccc(NC2=NN=C(c3cccs3)CS2)cc1`: in test [11], the AC50 was 63.8 µM (active).
Turning to `COc1ccccc1CN1C(=O)CN(C2CCCCCC2)C(=O)C1c1ccc(F)cc1` (stereo unspecified), the AC50 in test [5] is 30.9 µM (active); in [6], 20.9 µM (active); in test [7] it was 60.9 µM (active).
The term GI50 denotes the concentration that inhibits growth by half. For `O=NN(CCCl)C(=O)NC1CCC(CC2CCC(NC(=O)N(CCCl)N=O)CC2)CC1` (stereo unspecified), the GI50 was 1.64 µM (inactive) in test [23] and 0.385 µM (active) in test [24].
Turning to `COc1ccc(-c2csc(-n3cccn3)n2)cc1`, the concentration at half-maximal activity (AC50) in test [11] is 33.9 µM (active).
In the case of `CCC[C@@H](CN1CCC[C@H]1CN1C(N)=NC[C@@H]1Cc1ccccc1)N1C[C@@H]([C@H](C)CC)N(CCc2ccc(Cl)c(Cl)c2)C1=N`, the IC50 in test [10] was > 20 µM (inactive).
On to `c1csc(-c2noc(COc3ccc4c(c3)CCCC4)n2)c1`, for which, in [11], the AC50 was > 350 µM (inactive).
With `O=C(N/N=C\c1cccc(Cl)c1)c1[nH]nc2c1CCCC2`, the AC50 in test [11] was > 350 µM (inactive).
Turning to `Cc1cc2c3c(c1)C1(SCC(=O)N1c1ccc(F)cc1)C(=O)N3C(C)(C)CC2C` (stereo unspecified), the figures for the AC50 in [5], in [7] and in test [8] were 3.4 µM (active), > 32 µM (inactive) and 9.73 µM (active), respectively.
Take `NS(=O)(=O)c1ccc(NC=C2C(=O)N(C3CCCCC3)C(=O)N(C3CCCCC3)C2=O)cc1`: the EC50 in test [15] is 5.47 µM (active); in test [16], 5.81 µM (active). Besides, the AC50 in test [25] was 3.92 µM (active).
With `NC(=O)c1nsc(C(=O)N(c2cccc(F)c2)C(C(=O)NCC2CCCO2)c2c[nH]c3ccccc23)c1N` (stereo unspecified), in [10], the IC50 was > 20 µM (inactive).
For the compound `CC(C)Cn1nc(NS(=O)(=O)c2ccccc2)c2cc3ccccc3nc21`, the EC50 in [15] and in test [16] was > 20 µM (not active) each time.
Take `CC(=O)N1CCN(C(=O)CCc2nc(O)c3ccccc3n2)CC1`: the IC50 in test [9] was > 79 µM (inactive).
With `CCCN1C[C@@H](C)[C@H](OC)CN(C)C(=O)c2ccc(NC(=O)c3cccc(F)c3)cc2OC[C@H]1C`, the AC50 in test [26] is 5.34 µM (active).
Regarding `C=CCC1(CC=C)CCCN1C(=O)C1CCC(=O)N(CCc2ccccc2)C1` (stereo unspecified), the AC50 in test [11] was 93 µM (active).
